Values of other authors, collected in patent publication US6689384B2, “Stable pergolide mesylate and process for making same” (Teva Pharmaceuticals Industries Ltd., priority 2000, dated 2004).
Structures can show the parent of a compound that is named as a salt.

How the values were obtained:
[1] = system: secretion of prolactin; conditions: in humans
[2] = system: serum concentrations of growth hormone; conditions: in humans
[3] = system: serum concentrations of luteinizing hormone; conditions: in humans
[4] = oral administration, 14C radio-labeled
[5] = system: plasma proteins

administered radioactivity recovered from expired CO2 [4]	administered radioactivity recovered from the urine [4]	bound to plasma proteins [5]	SMILES	secretion of prolactin [1]	serum concentrations of growth hormone [2]	serum concentrations of luteinizing hormone [3]
~5%	approximately 55%	–	CCCN1CC(CSC)CC2c3cccc4[nH]cc(c34)CC21 (stereo not drawn) [Pergolide mesylate, 8(beta)-[(Methylthio)methyl]-6-propylergoline monomethanesulfonate]	inhibits	transient rise	decrease
–	–	approximately 90%	CCCN1C[C@H](CSC)C[C@@H]2c3cccc4[nH]cc(c34)C[C@H]21 [Pergolide]	–	–	–
